In PMC8745314, “Novel Tetrazole-Based Antimicrobial Agents Targeting Clinical Bacteria Strains: Exploring the Inhibition of Staphylococcus aureus DNA Topoisomerase IV and Gyrase” (International Journal of Molecular Sciences, 2021):
Values after ≈ are worked out from the molar mass of the structure shown.

Tests used:
E. coli ATCC 25922 = assay: MIC broth microdilution, standard strain; type: cell-based; conditions: Escherichia coli, ATCC25922; E. coli ATCC 25922, standard strain, 19 h at 35 °C; read-out: minimal inhibitory concentration (MIC)
Method: (§1) All synthesized compounds were tested in vitro against a set of bacteria, including representative standard Gram-positive and Gram-negative rods. Compounds were screened for their minimal inhibitory concentrations (MICs). […] These three compounds were also found to be good inhibitors of the growth of Gram-negative rods: […] The antimicrobial assays were conducted using reference strains of bacteria derived from international microbe collections: American Type Culture Collection (ATCC) and National Collection of Type Culture (NCTC). The following standard strains of bacteria were used: Gram-positive-Staphylococcus aureus NCTC 4163, Staphylococcus aureus ATCC 25923, Staphylococcus aureus ATCC 6538, Staphylococcus aureus ATCC 29213, Staphylococcus epidermidis ATCC 12228, Staphylococcus epidermidis ATCC 35984, Gram-negative: Escherichia coli ATCC 25922, Pseudomonas aeruginosa ATCC 15442. Clinical strains of bacteria used in this study: Gram-positive: Staphylococcus epidermidis 5253, Staphylococcus epidermidis 4243, Staphylococcus aureus […], Staphylococcus aureus […] and Gram-negative: Escherichia coli 520, Escherichia coli 600, Klebsiella pneumoniae 510 and Pseudomonas aeruginosa 659 were obtained from the collection of the Department of Pharmaceutical Microbiology, Medical University of Warsaw, Poland and they were isolated from different biological materials taken from the patients hospitalized in the Warsaw Medical University hospitals. Antimicrobial activity was examined by the minimal inhibitory concentration (MIC) method under standard procedures provided by CLSI with some modifications. MIC was determined by the two-fold serial broth microdilution method in 96-well microtitration plates using Mueller-Hinton II broth medium (Becton Dickinson, Franklin Lakes, NJ, USA). The final inoculum of all studied bacteria was 10^6 CFU/mL (colony forming unit per milliliter). The stock solution of tested compounds was prepared in dimethyl sulfoxide (DMSO) and diluted to a maximum of 1% of solvent content with a sterile medium.

S. aureus NCTC 4163 = assay: MIC broth microdilution, standard strain; type: cell-based; conditions: Staphylococcus aureus, NCTC4163; S. aureus NCTC 4163, standard strain, 19 h at 35 °C; read-out: minimal inhibitory concentration (MIC)
Method: as §1

P. aeruginosa ATCC 15442 = assay: MIC broth microdilution, standard strain; type: cell-based; conditions: Pseudomonas aeruginosa, ATCC15442; P. aeruginosa ATCC 15442, standard strain, 19 h at 35 °C; read-out: minimal inhibitory concentration (MIC)
Method: as §1

S. aureus ATCC 25923 = assay: MIC broth microdilution, standard strain; type: cell-based; conditions: Staphylococcus aureus, ATCC25923; S. aureus ATCC 25923, standard strain, 19 h at 35 °C; read-out: minimal inhibitory concentration (MIC)
Method: as §1

[1] = system: S. epidermidis ATCC 12228; assay: MIC broth microdilution, standard strain; type: cell-based; conditions: Staphylococcus epidermidis, ATCC12228; S. epidermidis ATCC 12228, standard strain, 19 h at 35 °C; read-out: minimal inhibitory concentration (MIC)
Method: (§2) All synthesized compounds were tested in vitro against a set of bacteria, including representative standard Gram-positive and Gram-negative rods. Compounds were screened for their minimal inhibitory concentrations (MICs). […] The antimicrobial assays were conducted using reference strains of bacteria derived from international microbe collections: American Type Culture Collection (ATCC) and National Collection of Type Culture (NCTC). The following standard strains of bacteria were used: Gram-positive-Staphylococcus aureus NCTC 4163, Staphylococcus aureus ATCC 25923, Staphylococcus aureus ATCC 6538, Staphylococcus aureus ATCC 29213, Staphylococcus epidermidis ATCC 12228, Staphylococcus epidermidis ATCC 35984, Gram-negative: Escherichia coli ATCC 25922, Pseudomonas aeruginosa ATCC 15442. Clinical strains of bacteria used in this study: Gram-positive: Staphylococcus epidermidis 5253, Staphylococcus epidermidis 4243, Staphylococcus aureus […], Staphylococcus aureus […] and Gram-negative: Escherichia coli 520, Escherichia coli 600, Klebsiella pneumoniae 510 and Pseudomonas aeruginosa 659 were obtained from the collection of the Department of Pharmaceutical Microbiology, Medical University of Warsaw, Poland and they were isolated from different biological materials taken from the patients hospitalized in the Warsaw Medical University hospitals. […] MIC was determined by the two-fold serial broth microdilution method in 96-well microtitration plates using Mueller-Hinton II broth medium (Becton Dickinson, Franklin Lakes, NJ, USA). The final inoculum of all studied bacteria was 10^6 CFU/mL (colony forming unit per milliliter). The stock solution of tested compounds was prepared in dimethyl sulfoxide (DMSO) and diluted to a maximum of 1% of solvent content with a sterile medium.

[2] = system: S. epidermidis ATCC 35984; assay: MIC broth microdilution, standard strain; type: cell-based; conditions: Staphylococcus epidermidis, ATCC35984; S. epidermidis ATCC 35984, standard strain, 19 h at 35 °C; read-out: minimal inhibitory concentration (MIC)
Method: as §2

S. aureus ATCC 6538 = assay: MIC broth microdilution, standard strain; type: cell-based; conditions: Staphylococcus aureus, ATCC6538; S. aureus ATCC 6538, standard strain, 19 h at 35 °C; read-out: minimal inhibitory concentration (MIC)
Method: as §2

S. aureus ATCC 29213 = assay: MIC broth microdilution, standard strain; type: cell-based; conditions: Staphylococcus aureus, ATCC29213; S. aureus ATCC 29213, standard strain, 19 h at 35 °C; read-out: minimal inhibitory concentration (MIC)
Method: as §2

[3] = target: S. aureus topoisomerase IV (Staphylococcus aureus, UniProt P0C1S7+P0C1U9); assay: Topoisomerase IV decatenation assay; type: biochemical; conditions: decatenation of kinetoplast DNA, read-out: IC50 ± S.E.M. for Topoisomerase IV (converted)
Method: Description related to conducted biological studies including cell culture, suitable conditions, and methodology was presented in our previous paper.
Figure 1 The effect of tested compounds on S. aureus topoisomerase IV activity. Decreasing amounts of 1, 2, or 3 were incubated with 200 ng kinetoplast DNA and run-on agarose gel. Lane: 1–5: compound 3 at concentrations 64, 32, 8, 2, 0.5 μg/mL, respectively. Lane: 6–10: compound 2 at concentrations 64, 32, 8, 2, 0.5 μg/mL, respectively. Lane: 11–15: compound 1 at concentrations 64, 32, 8, 2, 0.5 μg/mL, respectively.

O=C(O)c1cn(C2CC2)c2cc(N3CCNCC3)c(F)cc2c1=O [Ciprofloxacin, reference compound]
MIC (E. coli ATCC 25922): 0.015 mg/L (≈ 0.0453 µM) | MIC (S. aureus NCTC 4163): 0.125 mg/L (≈ 0.377 µM) | MIC (P. aeruginosa ATCC 15442): 0.125 mg/L (≈ 0.377 µM) | MIC (S. aureus ATCC 25923): 0.5 mg/L (≈ 1.51 µM)

CC1=C(C)C2(C)CC1(C)C1C(=O)N(Nc3nnnn3-c3ccc(C)cc3)C(=O)C12 (centres unmarked) [Compound 5, 4,5,6,7-Tetramethyl-2-((1-(p-tolyl)-1H-tetrazol-5-yl)amino)-3a,4,7,7a-tetrahydro-1H-4,7-methanoisoindole-1,3(2H)-dione]
MIC [1]: > 256 mg/L | MIC [2]: > 256 mg/L | MIC (S. aureus ATCC 6538): > 256 mg/L | MIC (S. aureus ATCC 29213): > 256 mg/L | MIC (E. coli ATCC 25922): > 256 mg/L | MIC (S. aureus NCTC 4163): > 256 mg/L | MIC (P. aeruginosa ATCC 15442): > 256 mg/L | MIC (S. aureus ATCC 25923): > 256 mg/L

CC(C)C12C=CC(C)(CC1)C1C(=O)N(Nc3nnnn3-c3ccccc3Cl)C(=O)C12 (centres unmarked) [Compound 7, 2-((1-(2-Chlorophenyl)-1H-tetrazol-5-yl)amino)-4-isopropyl-7-methyl-3a,4,7,7a-tetrahydro-1H-4,7-ethanoisoindole-1,3(2H)-dione]
MIC [1]: 128 mg/L (≈ 300 µM) | MIC [2]: 32 mg/L (≈ 75 µM) | MIC (S. aureus ATCC 6538): 32 mg/L (≈ 75 µM) | MIC (S. aureus ATCC 29213): 64 mg/L (≈ 150 µM) | MIC (E. coli ATCC 25922): 128 mg/L (≈ 300 µM) | MIC (S. aureus NCTC 4163): 32 mg/L (≈ 75 µM) | MIC (P. aeruginosa ATCC 15442): > 256 mg/L | MIC (S. aureus ATCC 25923): 32 mg/L (≈ 75 µM)

CC(C)C12C=CC(C)(CC1)C1C(=O)N(Nc3nnnn3-c3ccccc3)C(=O)C12 (centres unmarked) [Compound 11, 4-Isopropyl-7-methyl-2-((1-phenyl-1H-tetrazol-5-yl)amino)-3a,4,7,7a-tetrahydro-1H-4,7-ethanoisoindole-1,3(2H)-dione]
MIC [1]: 256 mg/L (≈ 652 µM) | MIC [2]: 128 mg/L (≈ 326 µM) | MIC (S. aureus ATCC 6538): 128 mg/L (≈ 326 µM) | MIC (S. aureus ATCC 29213): 128 mg/L (≈ 326 µM) | MIC (E. coli ATCC 25922): > 256 mg/L | MIC (S. aureus NCTC 4163): 128 mg/L (≈ 326 µM) | MIC (P. aeruginosa ATCC 15442): > 256 mg/L | MIC (S. aureus ATCC 25923): 128 mg/L (≈ 326 µM)

COc1c(N2C[C@@H]3CCCN[C@@H]3C2)c(F)cc2c(=O)c(C(=O)O)cn(C3CC3)c12 [Moxifloxacin, reference compound]
IC50 [3]: 2.24 µM
